Reference: patent US20210139484A1, “DIHYDROISOQUINOLINE-2(1H)-CARBOXAMIDE AND RELATED COMPOUNDS AND THEIR USE IN TREATING MEDICAL CONDITIONS” (GOSSAMER BIO SERVICES, INC., priority 2018, published 2021)

The molecules below were run against T1, human HPK1 protein (Homo sapiens, UniProt Q92918) (assay: Human HPK1 protein TR-FRET assay). Conditions: 1 mM ATP, Table 19.
T1 construct: recombinant human HPK1 protein (a.a. 1-346) was expressed in Sf9 insect cells; GST (N); purchased Signalchem M23-11G; host or cells: Sf9 insect cells (baculovirus)
T1 sequence (Q92918 1-346): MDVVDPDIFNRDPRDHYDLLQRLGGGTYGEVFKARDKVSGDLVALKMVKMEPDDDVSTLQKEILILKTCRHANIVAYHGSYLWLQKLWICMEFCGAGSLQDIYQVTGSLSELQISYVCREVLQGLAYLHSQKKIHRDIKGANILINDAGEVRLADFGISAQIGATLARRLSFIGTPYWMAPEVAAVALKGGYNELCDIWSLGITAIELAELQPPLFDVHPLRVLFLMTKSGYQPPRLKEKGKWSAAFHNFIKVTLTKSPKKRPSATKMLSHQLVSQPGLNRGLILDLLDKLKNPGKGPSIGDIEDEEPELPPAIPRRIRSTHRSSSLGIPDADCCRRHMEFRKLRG
Assay type: biochemical
Experimental: Exemplary compounds from the above Examples were tested for ability to inhibit HPK1 using a human HPK1 protein TR-FRET Assay. Assay procedures and results are described below.
N-terminal GST-tagged recombinant human HPK1 protein (a.a. 1-346) was expressed in Sf9 insect cells using a baculovirus expression system (Signalchem Catalog #M23-11G). The enzyme was diluted in assay buffer (50 mM Tris pH 7.5, 1 mM MgCl2, 0.01% NP-40 and 2 mM DTT) to obtain a 4× working solution at a concentration of 40 nM HPK1 enzyme.
A 5 μM stock of ULight™ CREBtide peptide RRPSYRK (Perkin Elmer Product No. TRF0107-M) derived from human cAMP Response Element Binding (CREB) Protein was prepared in storage buffer containing 50 mM Tris-HCl (pH 7.4), 0.9% NaCl, 0.1% BSA, and 0.05% sodium azide. The CREBtide substrate was diluted in assay buffer (50 mM Tris pH 7.5, 1 mM MgCl2, 0.01% NP-40, 2 mM DTT) with 2 mM ATP to a final concentration of 200 nM CREBtide peptide to obtain a 2× working solution of substrate. HPK1 enzyme and CREBtide substrate solutions were mixed with compounds diluted in DMSO to obtain a final concentration of enzyme, substrate, and ATP of 10 nM, 100 nM, and 1 mM, respectively, in 1% DMSO. The final assay mixture was incubated at room temperature for 60 minutes.
A solution of Europium-labeled anti-phospho-CREB (Ser133) antibody (Perkin Elmer Product No. TRF0200-M), EDTA and LANCE™ Detection Buffer (Perkin Elmer Product No. CR97-100) were added to each well to obtain a final concentration of 2 nM antibody, 10 mM EDTA and 1× LANCE buffer. The resulting mixture was incubated at room temperature for 60 minutes.
The fluorescence resonance energy transfer (FRET) signal was measured on an Envision plate reader: Excitation filter=340 nm, APC emission=665 nm, Europium emission=615 nm, dichroic mirror=D400/D630, delay time=100 μs, and integration time=200 μs. The half maximal inhibitory concentration (IC50) values for compounds were calculated from the quotient of the fluorescence signal at 665 nm divided by the fluorescence signal at 615 nm. The quotient of the fluorescence signals in the presence of DMSO without compound is set as 100 percent enzymatic activity. A 4-parameter logistic model in PRISM (GraphPad) was used to calculate the IC50 for a given compound.

IC50 [nM] | Structure (SMILES)
< 500 | CCN1CCN(Cc2ccc(NC(=O)N3Cc4cc(Oc5ccnc6[nH]c(C)cc56)ccc4C(C)C3)cc2C(F)(F)F)CC1 (stereo not shown) [IV-18]
< 500 | CCN1CCN(Cc2ccc(NC(=O)N3Cc4cc(Oc5ccnc6[nH]c(C)cc56)ccc4C(C)C3)cc2C(F)(F)F)CC1 (stereo not shown) [IV-19]
< 500 | CCC1CN(C(=O)Nc2ccc(CN3CCN(CC)CC3)c(C(F)(F)F)c2)Cc2cc(Oc3ccnc4[nH]ccc34)ccc21 (stereo not shown) [IV-20]
< 500 | CCC1CN(C(=O)Nc2ccc(CN3CCN(CC)CC3)c(C(F)(F)F)c2)Cc2cc(Oc3ccnc4[nH]ccc34)ccc21 (stereo not shown) [IV-21]
< 500 | CCC1CN(C(=O)Nc2ccc(CN3CCN(CC)CC3)c(C(F)(F)F)c2)Cc2cc(Oc3ccnc4[nH]ccc34)ccc21 (stereo not shown) [IV-22]
< 500 | CCN1CCN(Cc2ccc(NC(=O)N3Cc4cc(Oc5ccnc6[nH]ccc56)ccc4C4(CC4)C3)cc2C(F)(F)F)CC1 [IV-23]
500 to 5000 | CCC1c2cc(Oc3ccnc4[nH]ccc34)ccc2CCN1C(=O)Nc1ccc(CN2CCN(CC)CC2)c(C(F)(F)F)c1 (stereo not shown) [IV-24]
500 to 5000 | CCN1CCN(Cc2ccc(NC(=O)N3CCc4cc(F)c(Oc5ccnc6[nH]c(C)cc56)cc4C3C)cc2C(F)(F)F)CC1 (stereo not shown) [IV-26]
< 500 | CCN1CCN(Cc2ccc(NC(=O)N3Cc4cc(Oc5ccnc6[nH]c(C)cc56)c(F)cc4C(C)C3)cc2C(F)(F)F)CC1 (stereo not shown) [IV-27]
< 500 | CCN1CCN(Cc2ccc(NC(=O)N3Cc4cc(Oc5ccnc6[nH]c(C)cc56)c(F)cc4C(C)C3)cc2C(F)(F)F)CC1 (stereo not shown) [IV-28]
< 500 | CCN1CCN(Cc2ccc(NC(=O)N3Cc4cc(Oc5ccnc6[nH]c(C)cc56)c(F)cc4C(C)C3)cc2C(F)(F)F)CC1 (stereo not shown) [IV-29]
500 to 5000 | CCN1CCN(Cc2ccc(NC(=O)N3CCc4cc(F)c(Oc5ccnn6cccc56)cc4C3C)cc2C(F)(F)F)CC1 (stereo not shown) [IV-30]
< 500 | CCN1CCN(Cc2ccc(NC(=O)N3CCc4cc(F)c(Oc5ccnn6cccc56)cc4C3C)cc2C(F)(F)F)CC1 (stereo not shown) [IV-31]
> 10000 | CCN1CCN(Cc2ccc(NC(=O)N3CCc4cc(F)c(Oc5ccnn6cccc56)cc4C3C)cc2C(F)(F)F)CC1 (stereo not shown) [IV-32]
< 500 | CCN1CCN(Cc2ccc(NC(=O)N3CCc4cc(F)c(Oc5ncnn6cccc56)cc4C3C)cc2C(F)(F)F)CC1 (stereo not shown) [IV-33]
> 10000 | CCN1CCN(Cc2ccc(NC(=O)N3CCc4cc(F)c(Oc5ncnn6cccc56)cc4C3C)cc2C(F)(F)F)CC1 (stereo not shown) [IV-34]
< 500 | CCN1CCN(Cc2ccc(NC(=O)N3CCc4cc(F)c(Oc5ncnn6cccc56)cc4C3C)cc2C(F)(F)F)CC1 (stereo not shown) [IV-35]
< 500 | CCN1CCN(Cc2ccc(NC(=O)N3Cc4cc(Oc5ccnc6[nH]c(C)cc56)ccc4C(C(C)C)C3)cc2C(F)(F)F)CC1 (stereo not shown) [IV-36]
< 500 | CCCC1CN(C(=O)Nc2ccc(CN3CCN(CC)CC3)c(C(F)(F)F)c2)Cc2cc(Oc3ccnc4[nH]c(C)cc34)ccc21 (stereo not shown) [IV-37]
< 500 | Cc1cc2c(Oc3ccc4c(c3)CN(C(=O)Nc3cnc(OC5CCN(C)CC5)c(C(F)(F)F)c3)CC4C)ccnc2[nH]1 (stereo not shown) [IV-38]
< 500 | Cc1cc2c(Oc3ccc4c(c3)CN(C(=O)Nc3cnc(OC5CCN(C)CC5O)c(C(F)(F)F)c3)CC4C)ccnc2[nH]1 (stereo not shown) [IV-41]

The next lines start with the molecule.

Structure (SMILES) | IC50 [nM]
C[C@H]1c2cc(Oc3ccnc4[nH]ccc34)ccc2CCN1C(=O)Nc1ccc(CN2CCNCC2)c(C(F)(F)F)c1 [V-1] | < 500
C[C@H]1c2cc(Oc3ccnc4[nH]ccc34)ccc2CCN1C(=O)Nc1ccc(CN2CCN(C)CC2)c(C(F)(F)F)c1 [V-2] | < 500
CCN1CCN(Cc2ccc(NC(=O)N3CCc4ccc(Oc5ccnc6[nH]ccc56)cc4[C@@H]3C)cc2Cl)CC1 [V-3] | < 500
CCN1CCN(Cc2ccc(NC(=O)N3CCc4ccc(Oc5ccnc6[nH]ccc56)cc4[C@@H]3C)cc2C(F)F)CC1 [V-4] | < 500
CCN1CCN(Cc2ccc(NC(=O)N3CCc4ccc(Oc5ccnc6[nH]ncc56)cc4[C@@H]3C)cc2C(F)(F)F)CC1 [V-5] | < 500
CCN1CCN(Cc2ccc(NC(=O)N3CCc4ccc(Oc5ccnn6cccc56)cc4[C@@H]3C)cc2C(F)(F)F)CC1 [V-6] | < 500
CCN1CCN(Cc2ccc(NC(=O)N3CCc4ccc(Oc5ccnn6cc(-c7cnn(C)c7)cc56)cc4[C@@H]3C)cc2C(F)(F)F)CC1 [V-7] | < 500
CCN1CCN(Cc2ccc(NC(=O)N3CCc4ccc(Oc5ccnn6cc(C#N)cc56)cc4[C@@H]3C)cc2C(F)(F)F)CC1 [V-8] | < 500
CCN1CCN(Cc2ccc(NC(=O)N3CCc4ccc(Oc5ncnn6cc(C#N)cc56)cc4[C@@H]3C)cc2C(F)(F)F)CC1 [V-9] | < 500
CCN1CCN(Cc2ccc(NC(=O)N3CCc4ccc(Oc5ccnc6[nH]c(C#N)cc56)cc4[C@@H]3C)cc2C(F)(F)F)CC1 [V-10] | < 500
CCN1CCN(Cc2ccc(NC(=O)N3CCc4ccc(Oc5ccnc(C#N)c5)cc4[C@@H]3C)cc2C(F)(F)F)CC1 [V-11] | 500 to 5000
CCN1CCN(Cc2ccc(NC(=O)N3CCc4ccc(Oc5ccnc(C(N)=O)c5)cc4[C@@H]3C)cc2C(F)(F)F)CC1 [V-12] | 500 to 5000
CCN1CCN(Cc2ccc(NC(=O)N3CCc4ccc(Oc5ccnc(C(=O)NC)c5)cc4[C@@H]3C)cc2C(F)(F)F)CC1 [V-13] | < 500
C[C@H]1c2cc(Oc3ccnc4[nH]ccc34)ccc2CCN1C(=O)Nc1ccc(OC2CCNCC2)c(C(F)F)c1 [V-14] | 500 to 5000
C[C@H]1c2cc(Oc3ccnc4[nH]ccc34)ccc2CCN1C(=O)Nc1ccc(OC2CCN(C)CC2)c(C(F)F)c1 [V-15] | 500 to 5000
CCN1CCC(Oc2ccc(NC(=O)N3CCc4ccc(Oc5ccnc6[nH]ccc56)cc4[C@@H]3C)cc2C(F)F)CC1 [V-16] | 500 to 5000
C[C@H]1c2cc(Oc3ccnc4[nH]ccc34)ccc2CCN1C(=O)Nc1ccc(OC2CCN(CCO)CC2)c(C(F)(F)F)c1 [V-17] | < 500
C[C@H]1c2cc(Oc3ccnc4[nH]ccc34)ccc2CCN1C(=O)Nc1ccc(CN2CCN(CCO)CC2)c(C(F)F)c1 [V-18] | < 500
C[C@H]1c2cc(Oc3ccnc4[nH]ccc34)ccc2CCN1C(=O)Nc1ccc(CN2CCN(CCO)CC2)c(C(F)(F)F)c1 [V-19] | < 500
CCN1CCN(Cc2ccc(NC(=O)N3CCc4ccc(Oc5ccnc6[nH]ccc56)cc4[C@@H]3C)cc2C(F)(F)F)C(=O)C1 [V-20] | 500 to 5000
C[C@H]1c2cc(Oc3ccnc4[nH]ccc34)ccc2CCN1C(=O)Nc1ccc(CN2CCN(C3COC3)CC2)c(C(F)(F)F)c1 [V-21] | 500 to 5000
CCc1cc2c(Oc3ccc4c(c3)[C@H](C)N(C(=O)Nc3ccc(CN5CCN(CC)CC5)c(C(F)(F)F)c3)CC4)ccnc2[nH]1 [V-22] | < 500
CCN1CCN(Cc2ccc(NC(=O)N3CCc4ccc(Oc5ccnc6[nH]c(C7(O)COC7)cc56)cc4[C@@H]3C)cc2C(F)(F)F)CC1 [V-23] | < 500
CCN1CCN(Cc2ccc(NC(=O)N3CCc4ccc(Oc5ccnc6[nH]c(CCO)cc56)cc4[C@@H]3C)cc2C(F)(F)F)CC1 [V-24] | < 500
CCN1CCN(Cc2ccc(NC(=O)N3CCc4ccc(Oc5ccnc6[nH]c(CCOC)cc56)cc4[C@@H]3C)cc2C(F)(F)F)CC1 [V-25] | < 500
CCN1CCN(Cc2ccc(NC(=O)N3CCc4ccc(Oc5ccnc6[nH]c(C7CC7)cc56)cc4[C@@H]3C)cc2C(F)(F)F)CC1 [V-26] | < 500
CCN1CCN(Cc2ccc(NC(=O)N3CCc4ccc(Oc5ccnc6[nH]c(-c7cnn(C)c7)cc56)cc4[C@@H]3C)cc2C(F)(F)F)CC1 [V-27] | < 500
CCN1CCN(Cc2ccc(NC(=O)N3CCc4ccc(Oc5ncnc6[nH]c(C)cc56)cc4[C@@H]3C)cc2C(F)(F)F)CC1 [V-28] | < 500
